{
  "source": "patent US20030055067A1",
  "about": "“Antifungal composition with enhanced bioavailability” (SCHERING CORPORATION, priority 2001, published 2003)",
  "key": {"[1]": {"tested_on": "Aspergillis, Candida, Cryptococcus, Fusarium, and other opportunistic fungi", "details": "broad range of fungi; cited from earlier work"}, "[2]": {"experiment": "Randomized, open-label, 4-way crossover, single-dose bioavailability and food effect study", "assay_type": "in vivo, healthy subjects", "details": "for 0-hour plasma concentration of posaconazole: likely carry-over from previous doses", "from_the_text": "The relative bioavailability of the posaconazole oral suspension was compared to a solid dosage form of posaconazole in healthy subjects. The first objective was to determine the relative bioavailability of posaconazole given as an oral suspension compared to an oral solid formulation when administered with a high-fat breakfast. The second objective was to determine the effect of high-fat and non-fat food relative to fasting conditions on the oral bioavailability of the compound of formula I when given as an oral suspension. Twenty healthy subjects completed this randomized, open-label, 4-way crossover, single-dose bioavailability and food effect study of posaconazole. Subjects received each of the following four treatments separated by at least a 7 day washout period: [table] Subjects were randomized to either remain fasted (Treatment A), to receive a standardized high fat breakfast (Treatment B or D) or a standardized non-fat breakfast (Treatment C). Meals were consumed in a 20-minute period prior to the morning drug administration and subjects received the appropriate treatment within 5 minute of completing the breakfast. […] The area under the plasma concentration-time curve from time zero to the final quantifiable sampling time [AUC(tf)] was calculated using the linear trapezoidal method and extrapolated to infinity (I) as follows: [formula] where C(tf) is the estimated concentration determined from linear regression at time, tf. Total body clearance was calculated by the following: CL=Dose/AUC(I) The apparent volume of distribution ([…]) was calculated from the ratio of the total body clearance to the terminal phase rate constant (K). Summary statistics were calculated for the plasma suspension formulation of the present invention compared to a prior art tablet formulation concentration-time data at each time point and the derived pharmacokinetic parameters. The original scale and log-transformed Cmax and AUC values were analyzed using an analysis of variance (ANOVA). […]"}, "[3]": {"experiment": "Lipophilicity and water solubility (background statement)", "assay_type": "physicochemical"}, "[4]": {"experiment": "Rate of sedimentation of the oral suspension (HPLC assay after shaking and rest)", "assay_type": "physicochemical", "details": "after 3 days", "protocol": "The rate of sedimentation of the liquid suspension of the present invention was determined as set forth below. Two bottles containing the suspension of the present invention were shaken and left to rest. The bottles were then sampled immediately (time zero), then after 5 minutes, 10 minutes, 30 minutes, 60 minutes and after 72 hours (three days) post shaking. The levels of posaconazole and of the preservative (Sodium Benzoate) in these samples were assayed by HPLC. HPLC methods of detection are well-known to one of skill in the art."}},
  "data": [
    {"molecule": "CC[C@@H]([C@H](C)O)n1ncn(-c2ccc(N3CCN(c4ccc(OC[C@@H]5CO[C@@](Cn6cncn6)(c6ccc(F)cc6F)C5)cc4)CC3)cc2)c1=O", "note": "[posaconazole]", "values": [
      {"measurement": "antifungal activity", "setting": "[1]", "value": "potent"},
      {"measurement": "0-hour plasma concentration of posaconazole", "setting": "[2]; Subject 20, Treatment A", "value": 22.5, "unit": "ng/mL"},
      {"measurement": "0-hour plasma concentration of posaconazole", "setting": "[2]; Subject 20, Treatment B", "value": 8.5, "unit": "ng/mL"},
      {"measurement": "mean terminal t½", "setting": "[2]; independent of treatment", "value": "about 22 hour"},
      {"measurement": "lipophilicity", "setting": "[3]", "value": "highly lipophilic"},
      {"measurement": "water solubility", "setting": "[3]", "value": "extremely low"},
      {"measurement": "sedimentation of posaconazole", "setting": "[4]", "value": "not sedimented"}
    ]}
  ]
}
